# Measured values from PubChem BioAssay AID1963827 (Molecular Pharmacology Branch, DTP, NCI, 2024).
# Tested on: 994946-033-R-J1-PDC complex spheroid viability
# Experiment: Anticancer human tumor 994946-033-R-J1-PDC patient-derived melanoma cell line growth inhibition [POLQ]
# Conditions: for IC50: curve of first compound; for viability, T/C: stronger effect = lower value
# How it was run: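 Complex spheroid viability model combining PDC tumour cells with endothelial (HUVEC) and MSC stromal cells. Novobiocin, ART-558 or RP6685 were tested singly and in combination with standard and investigational anticancer drugs. Each was titrated in half-log steps from near clinical Cmax, or from 10 microM where Cmax was unknown.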
# [1] = second compound 0.0316 µM, first compound 0.0316 µM
# [2] = second compound 0.0316 µM, first compound 0.1 µM
# [3] = second compound 0.1 µM, first compound 0.0316 µM
# [4] = second compound 0.1 µM, first compound 0.1 µM
# [5] = second compound 0.316 µM, first compound 0.0316 µM
# [6] = second compound 0.316 µM, first compound 0.1 µM
# [7] = second compound 1 µM, first compound 0.0316 µM
# [8] = second compound 1 µM, first compound 0.1 µM
# [9] = second compound 3.16 µM, first compound 0.0316 µM
# [10] = second compound 3.16 µM, first compound 0.1 µM
# [11] = second compound 10 µM, first compound 0.0316 µM
# [12] = second compound 10 µM, first compound 0.1 µM
# 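Note: spheroids exposed to drugs for 7 days.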
# 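Throughout, for viability, T/C: 100% = DMSO vehicle treated spheroids.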
smiles,measurement,setting,value
CC[C@@]1(O)C(=O)OCc2c1cc1n(c2=O)Cc2cc3c(CN(C)C)c(O)ccc3nc2-1 + Cc1cccc(N(C)C(=O)C2C(O)CCN2c2nc(C)cc(C(F)(F)F)c2C#N)c1,IC50,second compound 0.0316 µM,19.1 nM
same,IC50,second compound 0.1 µM,19.1 nM
same,IC50,second compound 0.316 µM,20.1 nM
same,IC50,second compound 1 µM,11.2 nM
same,IC50,second compound 3.16 µM,18.3 nM
same,IC50,second compound 10 µM,21.1 nM
same,"viability, T/C","second compound 0.0316 µM, first compound 0.000316 µM",80.5%
same,"viability, T/C","second compound 0.0316 µM, first compound 0.001 µM",94%
same,"viability, T/C","second compound 0.0316 µM, first compound 0.00316 µM",110%
same,"viability, T/C","second compound 0.0316 µM, first compound 0.01 µM",73%
same,"viability, T/C",[1],30.9%
same,"viability, T/C",[2],8.8%
same,"viability, T/C","second compound 0.1 µM, first compound 0.000316 µM",113%
same,"viability, T/C","second compound 0.1 µM, first compound 0.001 µM",78.6%
same,"viability, T/C","second compound 0.1 µM, first compound 0.00316 µM",87%
same,"viability, T/C","second compound 0.1 µM, first compound 0.01 µM",78%
same,"viability, T/C",[3],28.5%
same,"viability, T/C",[4],9.63%
same,"viability, T/C","second compound 0.316 µM, first compound 0.000316 µM",83.4%
same,"viability, T/C","second compound 0.316 µM, first compound 0.001 µM",106%
same,"viability, T/C","second compound 0.316 µM, first compound 0.00316 µM",94.8%
same,"viability, T/C","second compound 0.316 µM, first compound 0.01 µM",82%
same,"viability, T/C",[5],29.2%
same,"viability, T/C",[6],12.1%
same,"viability, T/C","second compound 1 µM, first compound 0.000316 µM",108%
same,"viability, T/C","second compound 1 µM, first compound 0.001 µM",71.3%
same,"viability, T/C","second compound 1 µM, first compound 0.00316 µM",79.3%
same,"viability, T/C","second compound 1 µM, first compound 0.01 µM",57.5%
same,"viability, T/C",[7],26.9%
same,"viability, T/C",[8],9.85%
same,"viability, T/C","second compound 3.16 µM, first compound 0.000316 µM",96.1%
same,"viability, T/C","second compound 3.16 µM, first compound 0.001 µM",98.7%
same,"viability, T/C","second compound 3.16 µM, first compound 0.00316 µM",77%
same,"viability, T/C","second compound 3.16 µM, first compound 0.01 µM",71%
same,"viability, T/C",[9],33.4%
same,"viability, T/C",[10],10.7%
same,"viability, T/C","second compound 10 µM, first compound 0.000316 µM",113%
same,"viability, T/C","second compound 10 µM, first compound 0.001 µM",99.6%
same,"viability, T/C","second compound 10 µM, first compound 0.00316 µM",107%
same,"viability, T/C","second compound 10 µM, first compound 0.01 µM",81.8%
same,"viability, T/C",[11],32.7%
same,"viability, T/C",[12],10.4%
CC(=O)O[C@H]1C(=O)[C@@]2(C)[C@H]([C@H](OC(=O)c3ccccc3)[C@]3(O)C[C@H](OC(=O)[C@H](O)[C@@H](NC(=O)c4ccccc4)c4ccccc4)C(C)=C1C3(C)C)[C@]1(OC(C)=O)CO[C@@H]1C[C@@H]2O + COC1C(OC(N)=O)C(O)C(Oc2ccc3c(O)c(NC(=O)c4ccc(O)c(CC=C(C)C)c4)c(=O)oc3c2C)OC1(C)C,IC50,second compound 0.0316 µM,< 9.49 nM
same,IC50,second compound 0.1 µM,< 9.49 nM
same,IC50,second compound 0.316 µM,< 9.49 nM
same,IC50,second compound 1 µM,< 9.49 nM
same,IC50,second compound 3.16 µM,< 9.49 nM
same,IC50,second compound 10 µM,< 9.49 nM
same,"viability, T/C","second compound 0.0316 µM, first compound 0.00949 µM",23.9%
same,"viability, T/C","second compound 0.0316 µM, first compound 0.03 µM",25.3%
same,"viability, T/C","second compound 0.0316 µM, first compound 0.0949 µM",16.4%
same,"viability, T/C","second compound 0.0316 µM, first compound 0.3 µM",12.5%
same,"viability, T/C","second compound 0.0316 µM, first compound 0.949 µM",12%
same,"viability, T/C","second compound 0.0316 µM, first compound 3 µM",10.4%
same,"viability, T/C","second compound 0.1 µM, first compound 0.00949 µM",24.4%
same,"viability, T/C","second compound 0.1 µM, first compound 0.03 µM",20.5%
same,"viability, T/C","second compound 0.1 µM, first compound 0.0949 µM",14.5%
same,"viability, T/C","second compound 0.1 µM, first compound 0.3 µM",11.9%
same,"viability, T/C","second compound 0.1 µM, first compound 0.949 µM",14.2%
same,"viability, T/C","second compound 0.1 µM, first compound 3 µM",9.19%
same,"viability, T/C","second compound 0.316 µM, first compound 0.00949 µM",20.4%
same,"viability, T/C","second compound 0.316 µM, first compound 0.03 µM",23.3%
same,"viability, T/C","second compound 0.316 µM, first compound 0.0949 µM",23.7%
same,"viability, T/C","second compound 0.316 µM, first compound 0.3 µM",17.2%
same,"viability, T/C","second compound 0.316 µM, first compound 0.949 µM",15.4%
same,"viability, T/C","second compound 0.316 µM, first compound 3 µM",14.9%
same,"viability, T/C","second compound 1 µM, first compound 0.00949 µM",22.8%
same,"viability, T/C","second compound 1 µM, first compound 0.03 µM",18%
same,"viability, T/C","second compound 1 µM, first compound 0.0949 µM",17.1%
same,"viability, T/C","second compound 1 µM, first compound 0.3 µM",18.5%
same,"viability, T/C","second compound 1 µM, first compound 0.949 µM",14.7%
same,"viability, T/C","second compound 1 µM, first compound 3 µM",10.9%
same,"viability, T/C","second compound 3.16 µM, first compound 0.00949 µM",23.8%
same,"viability, T/C","second compound 3.16 µM, first compound 0.03 µM",20.4%
same,"viability, T/C","second compound 3.16 µM, first compound 0.0949 µM",19.9%
same,"viability, T/C","second compound 3.16 µM, first compound 0.3 µM",15.4%
same,"viability, T/C","second compound 3.16 µM, first compound 0.949 µM",15.1%
same,"viability, T/C","second compound 3.16 µM, first compound 3 µM",11.3%
same,"viability, T/C","second compound 10 µM, first compound 0.00949 µM",21.5%
same,"viability, T/C","second compound 10 µM, first compound 0.03 µM",26%
same,"viability, T/C","second compound 10 µM, first compound 0.0949 µM",16.2%
same,"viability, T/C","second compound 10 µM, first compound 0.3 µM",12.8%
same,"viability, T/C","second compound 10 µM, first compound 0.949 µM",14.9%
same,"viability, T/C","second compound 10 µM, first compound 3 µM",8.96%
O=c1[nH]cc(F)c(=O)[nH]1 + Nc1ccc(C#CCN(C(=O)Cc2ncc(C(F)(F)F)cc2C(F)(F)F)c2ccc(F)cc2)nn1,IC50,second compound 0.0316 µM,> 10000 nM
same,IC50,second compound 0.1 µM,> 10000 nM
same,IC50,second compound 0.316 µM,> 10000 nM
same,IC50,second compound 1 µM,> 10000 nM
same,IC50,second compound 3.16 µM,5540 nM
same,IC50,second compound 10 µM,> 10000 nM
same,"viability, T/C",[1],104%
same,"viability, T/C",[2],114%
same,"viability, T/C","second compound 0.0316 µM, first compound 0.316 µM",92.5%
same,"viability, T/C","second compound 0.0316 µM, first compound 1 µM",67.9%
same,"viability, T/C","second compound 0.0316 µM, first compound 3.16 µM",62.8%
same,"viability, T/C","second compound 0.0316 µM, first compound 10 µM",54%
same,"viability, T/C",[3],101%
same,"viability, T/C",[4],75.6%
same,"viability, T/C","second compound 0.1 µM, first compound 0.316 µM",93.7%
same,"viability, T/C","second compound 0.1 µM, first compound 1 µM",81%
same,"viability, T/C","second compound 0.1 µM, first compound 3.16 µM",60.1%
same,"viability, T/C","second compound 0.1 µM, first compound 10 µM",68.9%
same,"viability, T/C",[5],81.9%
same,"viability, T/C",[6],81.1%
same,"viability, T/C","second compound 0.316 µM, first compound 0.316 µM",104%
same,"viability, T/C","second compound 0.316 µM, first compound 1 µM",70.8%
same,"viability, T/C","second compound 0.316 µM, first compound 3.16 µM",76.1%
same,"viability, T/C","second compound 0.316 µM, first compound 10 µM",63.1%
same,"viability, T/C",[7],100%
same,"viability, T/C",[8],83.1%
same,"viability, T/C","second compound 1 µM, first compound 0.316 µM",116%
same,"viability, T/C","second compound 1 µM, first compound 1 µM",61.1%
same,"viability, T/C","second compound 1 µM, first compound 3.16 µM",66.8%
same,"viability, T/C","second compound 1 µM, first compound 10 µM",50.8%
same,"viability, T/C",[9],97.2%
same,"viability, T/C",[10],112%
same,"viability, T/C","second compound 3.16 µM, first compound 0.316 µM",81.2%
same,"viability, T/C","second compound 3.16 µM, first compound 1 µM",85.3%
same,"viability, T/C","second compound 3.16 µM, first compound 3.16 µM",49.2%
same,"viability, T/C","second compound 3.16 µM, first compound 10 µM",47%
same,"viability, T/C",[11],111%
same,"viability, T/C",[12],51.9%
same,"viability, T/C","second compound 10 µM, first compound 0.316 µM",86.9%
same,"viability, T/C","second compound 10 µM, first compound 1 µM",67.6%
same,"viability, T/C","second compound 10 µM, first compound 3.16 µM",75.3%
same,"viability, T/C","second compound 10 µM, first compound 10 µM",42.4%
